These results are taken from patent US20060030616A1, “Anhydride modified cantharidin analogues useful in the treatment of cancer” (priority 1998, published 2006).

Data set [1] relates to protein phosphatase 1 (PP1). The experiment in a line: Inhibition of protein phosphatase 1, [32P]-phosphorylase substrate. The data set is classed as biochemical, chicken. The note with it: for Inhibition of PP1 (%): initial screening at 100 mM (so in the source). As to the method:
(§1) All synthesised compounds were tested for their ability to inhibit protein phosphatases 1 and 2A. Initial investigations were carried out at 100 mM. Promising analogues were then assayed in triplicate for estimation of IC50 values.
(§2) Protein phosphatase 1 and 2A were partially purified from chicken skeletal muscle essentially as described by Cohen Protein phosphatase activity was measured at 37° C. in 50 mM Tris-HCl buffer (pH 7.4), 0.1 mM EDTA, 5 mM caffeine, 0.1% 2-mercaptoethanol and 1 mg/ml bovine serum albumin using […] [^32P]-phosphorylase as substrate. The total assay volume was […]. The assay conditions were restricted to 20% dephosphorylation to ensure linearity and inhibition of protein phosphatase activity was determined by including cantharidin or its analogues at the required concentrations in the reaction buffer. Reactions were terminated by the addition of 0.1 ml ice cold 20% trichloroacetic acid. Precipitated protein was pelleted by centrifugation and the radioactivity in the supernatant measured by liquid scintillation counting. Data is expressed as the percentage inhibition with respect to a control (absence of a competing compound) incubation.
(§3) Anhydrides and simple analogues were synthesised according to literature procedures (Eggelte et. al; 1973), and then subjected to a PP1 and PP2A bio-assay (see biochemistry) to determine their ability to inhibit these enzymes. The results of initial screening at 100 mMs are shown in Table 4, along with IC50 values in some instances.

Data set [2] concerns the target protein phosphatase 2A (PP2A) (Gallus gallus, UniProt P48463). The experiment in a line: Inhibition of protein phosphatase 2A, [32P]-phosphorylase substrate. The data set is classed as biochemical, chicken. Also on record: inhibition: dose or concentration left out as unconfirmed. As to the method:
as §1, §2, §3

Data set [3] can be described thus: Stability under assay conditions. Format: physicochemical. Conditions: PP assay conditions.
Data set [4] has as its system protein phosphatase 2A (PP2A). The note with it: cited from earlier work; for IC50: background art.
Another data set concerns L1210 cells. The experiment in a line: MTT cytotoxicity assay, 72 h. Conditions: L1210, p53 wt; read-out: IC50 (mean ± SE) after 72 h continuous exposure. The data set is classed as cell-based, murine. As to the method:
(§4) Cells in a subconfluent phase are transferred to 96-well microtitre plates. L1210 cells are plated at a density of 1000 cells/well in 100 μl medium, while all other cell lines are plated at a density of 2000-25000 cells/well. The cells are left for 24 h prior to treatment to ensure exponential growth has been achieved, 24 h after plating (day 0), 100 μl of phosphatase inhibitor is added to each well, control wells received 100 μl of medium only. Drug exposure time is 72 h (day 3). The effect of phosphatase inhibition is tested in triplicate over a concentration range of […]−1×10^−8 M. Growth inhibitory effects are evaluated using the MTT assay and absorbance read at […]. The IC50 is the drug concentration at which cell growth is 50% inhibited based on the difference of optical density on day 0 and day 3 of drug exposure. Cytotoxicity is evaluated using a spectrophotometric assay which determines the percentage of cell growth following exposure of the cells to various concentrations of the phosphatase inhibitors for a period of 72 hours. The subsequent dose response curve is used to calculate IC50 values (the drug concentration at which cell growth is 50% inhibited).
(§5) Anti-cancer screening of the protein phosphatase inhibitors is assessed using the MTT assay. This assay determines cell viability by the ability of mitochondrial dehydrogenase to produce formazan crystals from 3-(4,5-dimethylthiazol-2-yl)-2,5-diphenyltetrazolium bromide. The viable cell number/well is directly proportional to the production of formazan, which following solubilization, can be measured spectrophotometrically (540 nm). This technique is also used by the National Cancer Institute to screen for new anticancer agents.
(§6) As described herein a number of cantharidin analogues have been synthesised and tested for their anticancer activity in nine cancer cell lines using the MTT assay after 72 h exposure. These new analogues are shown in FIG. 2 and have been designated MK-1 through to MK-9.

A further data set has as its system ADDP cells. The experiment in a line: MTT cytotoxicity assay, 72 h. Format: cell-based, human. The note with it: p53 mt, read-out: IC50 (mean ± SE) after 72 h continuous exposure. As to the method: as §4, §5, §6
For orientation: Tetrazolium dyes change colour on reduction, which living cells bring about.

For another data set, the system named is SW480 cells. Description: MTT cytotoxicity assay, 72 h. The data set is classed as cell-based, human. Conditions: SW480, p53 mt; read-out: IC50 (mean ± SE) after 72 h continuous exposure. The protocol:
as §4, §5, §6

In another data set the test system is HCT116 cells. The experiment in a line: MTT cytotoxicity assay, 72 h. Format: cell-based, human. Conditions: HCT116, p53 wt; read-out: IC50 (mean ± SE) after 72 h continuous exposure. The protocol:
as §4, §5, §6

The next data set concerns HT29 cells. Description: MTT cytotoxicity assay, 72 h. The data set is classed as cell-based, human. The note with it: HT29, p53 mt; read-out: IC50 (mean ± SE) after 72 h continuous exposure. As to the method:
as §4, §5, §6

In another data set the test system is A2780 cells. The experiment in a line: MTT cytotoxicity assay, 72 h. The data set is classed as cell-based, human. The note with it: A2780, p53 wt; read-out: IC50 (mean ± SE) after 72 h continuous exposure. As to the method:
as §4, §5, §6

The subject of the next data set is HL60 cells. Description: MTT cytotoxicity assay, 72 h. The data set is classed as cell-based, human. Conditions: HL60, p53 nul; read-out: IC50 (mean ± SE) after 72 h continuous exposure. The protocol: as §4, §5, §6
The next data set has as its system 143B cells. The experiment in a line: MTT cytotoxicity assay, 72 h. The data set is classed as cell-based, human. The note with it: p53 mt, read-out: IC50 (mean ± SE) after 72 h continuous exposure. As to the method: as §4, §5, §6
Another data set relates to WiDr cells. The experiment in a line: MTT cytotoxicity assay, 72 h. Conditions: p53 mt, read-out: IC50 (mean ± SE) after 72 h continuous exposure. Format: cell-based, human. The protocol:
as §4, §5, §6

The subject of the next data set is nine cancer cell lines. Description: MTT cytotoxicity assay, 72 h, ranges over cell line panel. Format: cell-based. The protocol: as §4, §5, §6
The target in data set [5] is protein phosphatase 1 (PP1). The note with it: background art; cited from earlier work.
[6] abbreviates: nine cell lines, read-out: IC50 range across all cell lines tested.

Read-outs that look alike come from different tables or passages of the source.

protein phosphatase 2A (PP2A) (Gallus gallus, UniProt P48463), sequence (P48463 whole entry): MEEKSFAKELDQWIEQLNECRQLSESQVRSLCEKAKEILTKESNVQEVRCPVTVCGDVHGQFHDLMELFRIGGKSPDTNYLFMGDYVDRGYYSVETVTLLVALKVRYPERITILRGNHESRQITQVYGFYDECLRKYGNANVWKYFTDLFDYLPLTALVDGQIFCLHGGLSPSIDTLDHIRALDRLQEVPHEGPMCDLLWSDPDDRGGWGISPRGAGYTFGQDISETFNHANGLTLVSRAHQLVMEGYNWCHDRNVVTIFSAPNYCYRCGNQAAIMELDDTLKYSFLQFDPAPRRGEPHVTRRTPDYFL

Take `COC(=O)C1C2C=CC(S2)C1C(=O)OC` (stereo not shown): the “Inhibition of PP1 (%)” value in data set [1] is on record as 3%.
With `O=C1NC(=O)C2C3CCC(S3)C12` (stereo not shown), in data set [1], the “Inhibition of PP1 (%)” value was 15%.
For `O=C1OC(=O)C2C3CCC(O3)C12` (stereo not shown) [Compound 1], in data set [1], the IC50 is 2.4 µM, the “Selectivity PP2A/PP1” value turned out to be 0.875 and the “Inhibition of PP1 (%)” value worked out at 90%. The molecule further gave an inhibition in data set [2] of 97%.
In turn, `O=C1OC(=O)C2C3C=CC(O3)C12` (stereo not shown) [Compound 2, norcantharidin, reference compound] yielded an inhibition in [2] of 95%.
For the molecule `O=C1OC(=O)[C@H]2[C@@H]1[C@H]1CC[C@H]2O1` [Compound 2, norcantharidin], in data set [3], the “Stability under assay conditions” value is given as “rapid conversion to the dicarboxylic acid”. Moreover, the “Previously reported PP2A selectivity” value in [4] (PP2A over PP1) is recorded as around 10 fold. For the same molecule, the “Inhibition of PP2A (%)” value in [2] (initial screening at 100 mM (so in the source)) was found to be 95%.
For `COC(=O)C1C2C=CC(O2)C1C(=O)OC` (stereo not shown) [Compound 3], in data set [1], the IC50 stood at 50 µM, the “Selectivity PP2A/PP1” value is recorded as above 200 and the “Inhibition of PP1 (%)” value is reported as 46%. Besides, the inhibition in data set [2] is 6%.
Turning to `CO[C@H]1OC(=O)C2C3CCC(O3)C21` (stereo partly shown) [Compound 4], the “Inhibition of PP1 (%)” value in data set [1] is given as 13%. The molecule also displayed an inhibition in data set [2] of 11%.
`CO[C@@H]1OC(=O)C2C3CCC(O3)C21` (stereo partly shown) [Compound 5]: the “Inhibition of PP1 (%)” value in [1] is 15%. The inhibition in data set [2] turned out to be 8%.
On to `O=C1OC(O)C2C3CCC(O3)C12` (stereo not shown) [Compound 6], for which, in data set [1], the “Inhibition of PP1 (%)” value turned out to be 9%. Besides, the inhibition in data set [2] was 11%.
Consider `O=C1OCC2C3CCC(O3)C12` (stereo not shown) [Compound 7], for which the inhibition in data set [2] worked out at 21%.
On to `O=C1NC(=O)C2C3C=CC(S3)C12` (stereo not shown) [MK-1], for which the IC50 in the data set on L1210 cells, with ADDP cells, with SW480 cells, in the data set with HCT116 cells, in the data set with HT29 cells and in the data set with A2780 cells was above 1000 µM throughout. The IC50 with HL60 cells, in the data set with 143B cells, in the data set with WiDr cells and in the data set with nine cancer cell lines (setting [6]) was above 1000 µM each time.
Regarding `O=C(O)C1C2C=CC(O2)C1C(=O)Oc1ccccc1` (stereo not shown) [MK-3], the half-maximal inhibitory concentration (IC50) with L1210 cells was 647 ± 132 µM; in the data set with ADDP cells, above 1000 µM; with SW480 cells, 444 ± 27 µM; in the data set with HCT116 cells, above 1000 µM; in the data set on HT29 cells it was 530 ± 112 µM; in the data set with A2780 cells, 317 ± 17 µM. The IC50 in the data set with HL60 cells is 247 ± 55 µM; with 143B cells it was 665 ± 225 µM; in the data set on WiDr cells, 620 ± 31 µM; in the data set with nine cancer cell lines (setting [6]), at least 247 µM.
For the molecule `COC1OC(=O)C2C3CCC(O3)C12` (stereo not shown) [MK-5], the 50% inhibitory concentration (IC50) is above 1000 µM in the data set on L1210 cells; 260 ± 40 µM in the data set on ADDP cells; 247 ± 14 µM in the data set on SW480 cells; 143 ± 23 µM with HCT116 cells; 28 ± 1 µM in the data set on HT29 cells; 567 ± 109 µM in the data set with A2780 cells. Besides, the IC50 in the data set with HL60 cells is 323 ± 13 µM; in the data set on 143B cells, above 1000 µM; in the data set on WiDr cells, 31 ± 10 µM; in the data set on nine cancer cell lines (colon lines, read-out: IC50 range in human colon cancer cell lines), 28 to 247 µM; in the data set on nine cancer cell lines (leukaemia lines, read-out: IC50 range in leukaemia cells), at least 323 µM; in the data set with nine cancer cell lines (ovarian lines, read-out: IC50 range in ovarian cells) it was 260 to 567 µM.
On to `C=C1[C@@H](O)[C@@H]2O[C@]3(CC[C@H](/C=C/[C@@H](C)[C@@H]4CC(C)=C[C@@]5(O[C@H](C[C@@](C)(O)C(=O)O)CC[C@H]5O)O4)O3)CC[C@H]2O[C@@H]1[C@@H](O)C[C@H](C)[C@H]1O[C@@]2(CCCCO2)CC[C@H]1C` [Okadaic acid], for which the IC50 in data set [4] was 0.001 µM; in data set [5], 0.06 µM.
Take `O=C1SC(=O)[C@H]2[C@@H]1[C@@H]1CC[C@H]2O1` [endothal thioanhydride]: the “Potency relative to cantharidin” value in data set [4] is recorded as “three fold more potent than cantharidin”.
Regarding calyculin, the IC50 is 0.002 µM in data set [4] and 0.0005 to 0.001 µM in data set [5].

A word on the IC50: it is the point on the concentration scale where inhibition reaches its midpoint. By inhibition is commonly meant the percentage by which the read-out fell short of the control.
